Source: paper PMC9601613, “Development of a Fluorescence Polarization Assay for Multi-Determination of 10 Aminoglycosides in Pork Muscle Sample Based on Ribosomal Protein S12 and Studying Its Recognition Mechanism” (Foods, 2022)

How the values were obtained:
[1] = biological target: T1, RpsL12 (ribosomal protein S12) (Lysinibacillus sphaericus, UniProt B1HMZ3); assay: surface plasmon resonance; assay type: binding; conditions: log2-transformed affinity, not an association constant in 1/M; sign as printed; KD itself only in supplement
T1 construct: gene rpsL; isolated ribosomal protein without rRNA; 426 bp gene in pET32a(+), purified from soluble fraction of E. coli BL21
T1 sequence (B1HMZ3 1-139): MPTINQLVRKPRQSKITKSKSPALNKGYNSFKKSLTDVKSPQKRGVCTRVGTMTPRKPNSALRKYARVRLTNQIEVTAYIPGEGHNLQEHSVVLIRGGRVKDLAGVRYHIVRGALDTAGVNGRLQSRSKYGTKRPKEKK
Text: surface plasmon resonance on RpsL12 (ribosomal protein S12)

[2] = biological target: T1, RpsL12 (ribosomal protein S12); assay: fluorescence polarization competition with tracer STR-FITC; assay type: binding
Text: fluorescence polarization competition with tracer STR-FITC on RpsL12 (ribosomal protein S12)

[3] = biological target: T1, RpsL12 (ribosomal protein S12); assay: biochemical; set-up: surface plasmon resonance, binding kinetics and equilibrium dissociation constant of aminoglycosides to RpsL12; conditions: for kon: read-out: Ka; for koff: read-out: Kd
Protocol: The affinities of the RpsL12 for the 10 AGs were determined by using the surface plasmon resonance technique (SPR), and the assay procedures were performed according to our recent report (see Supplementary Materials). During the SPR test, the association constant (Ka), dissociation constant (Kd), and equilibrium dissociation constant (KD = Kd/Ka) for the 10 AGs were determined. Furthermore, the absolute affinity constants (KA=Log2(KD)) for the 10 AGs were also calculated, which were used to conveniently compare their affinities. For confirmation of the molecular docking results, the receptor affinities for the 10 drugs were also determined by SPR. […] The recognition mechanisms of RpsL12 protein for AGs reported in the present study were more comprehensive than the previous report. The recombinant plasmids were synthesized at Sangon Biotech Co., Ltd. (Shanghai, China) by inserting the RpsL12 gene of Lysinibacillus sphaericus (GenBank ID: AHC30887.1) into the express vector pET32a(+). The plasmids containing the express vector pET32a-RpsL12 were transformed into BL21 (D3) for acculturation, and the gene products in the positive colonies were characterized by a polymerase chain reaction and DNA sequencing. Then the RpsL12 was expressed with the same procedures as those described in our recent report (see Supplementary Materials), and the obtained product was analyzed with SDS-PAGE electrophoresis and Western blotting.

| SMILES | KA [1] | IC50 [2] | Kd [3] | kon [3] | koff [3] |
| --- | --- | --- | --- | --- | --- |
| NCC[C@H](O)C(=O)N[C@@H]1C[C@H](N)[C@@H](O[C@H]2O[C@H](CN)[C@@H](O)[C@H](O)[C@H]2O)[C@H](O)[C@H]1O[C@H]1O[C@H](CO)[C@@H](O)[C@H](N)[C@H]1O [amikacin] | 24.487 | 116 nM | 42.5 nM | 1690 M⁻¹ s⁻¹ | 7.2e-05 s⁻¹ |
| CN[C@@H]1[C@@H](O[C@H]2O[C@H](CO)[C@@H](N)[C@H](O)[C@H]2O)O[C@H]2C[C@@H](N)[C@@H](O[C@H]3[C@H](O)[C@@H](O)[C@H](N)C[C@@H]3N)O[C@@H]2[C@@H]1O [apramycin] | – | – | – | 20200 M⁻¹ s⁻¹ | 0.000281 s⁻¹ |
| CCN[C@@H]1C[C@H](N)[C@@H](O[C@H]2O[C@H](CN)CC[C@H]2N)[C@H](O)[C@H]1O[C@H]1OC[C@](C)(O)[C@H](NC)[C@H]1O [etimicin] | 11.358 | 129 nM | 381000 nM | 51.2 M⁻¹ s⁻¹ | 0.0195 s⁻¹ |
| CNC(C)[C@@H]1CC[C@@H](N)[C@@H](O[C@H]2[C@H](O)[C@@H](O[C@H]3OC[C@](C)(O)[C@H](NC)[C@H]3O)[C@H](N)C[C@@H]2N)O1 (stereo partly drawn) [gentamicin] | – | – | 4720 nM | 2180 M⁻¹ s⁻¹ | 0.0103 s⁻¹ |
| CNC[C@@H]1CC[C@@H](N)[C@@H](O[C@H]2[C@H](O)[C@@H](O[C@H]3OC[C@](C)(O)[C@H](NC)[C@H]3O)[C@H](N)C[C@@H]2N)O1 [micronomicin] | 14.666 | 137 nM | 38500 nM | 141 M⁻¹ s⁻¹ | 0.00543 s⁻¹ |
| NC[C@@H]1O[C@H](O[C@H]2[C@@H](O)[C@H](O[C@@H]3[C@@H](O)[C@H](N)C[C@H](N)[C@H]3O[C@H]3O[C@H](CN)[C@@H](O)[C@H](O)[C@H]3N)O[C@@H]2CO)[C@H](N)[C@@H](O)[C@@H]1O [neomycin] | 25.997 | 78.6 nM | 14.9 nM | 3150 M⁻¹ s⁻¹ | 4.7e-05 s⁻¹ |
| CCNC1CC(N)C(OC2OC(CN)=CCC2N)C(O)C1OC1OCC(C)(O)C(NC)C1O (stereo not drawn) [netimicin] | – | – | – | 37.1 M⁻¹ s⁻¹ | 0.00141 s⁻¹ |
| NC[C@@H]1O[C@H](O[C@H]2[C@@H](O)[C@H](O[C@@H]3[C@@H](O)[C@H](N)C[C@H](N)[C@H]3O[C@H]3O[C@H](CO)[C@@H](O)[C@H](O)[C@H]3N)O[C@@H]2CO)[C@H](N)[C@@H](O)[C@@H]1O [paromomycin] | 23.851 | 117 nM | 66.1 nM | 263000 M⁻¹ s⁻¹ | 0.0174 s⁻¹ |
| CN[C@@H]1[C@H](O)[C@H](NC)[C@H]2O[C@@]3(O)C(=O)C[C@@H](C)O[C@H]3O[C@@H]2[C@H]1O [spectinomycin] | 23.900 | 188 nM | 63.9 nM | 211000 M⁻¹ s⁻¹ | 0.0135 s⁻¹ |
| CN[C@@H]1[C@H](O[C@H]2[C@H](O[C@H]3[C@H](O)[C@@H](O)[C@H](N=C(N)N)[C@@H](O)[C@@H]3N=C(N)N)O[C@@H](C)[C@]2(O)C=O)O[C@@H](CO)[C@H](O)[C@H]1O [streptomycin] | 24.670 | 102 nM | 37.5 nM | 8200 M⁻¹ s⁻¹ | 0.000307 s⁻¹ |
